Assay results published in PMC2099433, “The binding site for neohesperidin dihydrochalcone at the human sweet taste receptor” (BMC Structural Biology, 2007).
Numbering of substitutions follows the chain as printed. Where two headings read alike, the source gives them in different places. Where a SMILES comes first, the peptide text is derived from it.

Legend:
[1] = molecular target: T1, hTAS1R2 + hTAS1R3 G804V^7.42 (Homo sapiens, UniProt Q7RTX0+Q8TE23, G804V); assay: Calcium response (FLIPR), hTAS1R3 mutant coexpressed with hTAS1R2; type: cell-based; settings: for EC50: n.r. = no response to NHDC up to highest tested concentration (6 mM), but responses to other sweeteners
T1 construct: expressed in transfected cells; host or cells: HEK293T cells stably expressing G16Gust44
T1 sequence (Q7RTX0 21-852 G804V): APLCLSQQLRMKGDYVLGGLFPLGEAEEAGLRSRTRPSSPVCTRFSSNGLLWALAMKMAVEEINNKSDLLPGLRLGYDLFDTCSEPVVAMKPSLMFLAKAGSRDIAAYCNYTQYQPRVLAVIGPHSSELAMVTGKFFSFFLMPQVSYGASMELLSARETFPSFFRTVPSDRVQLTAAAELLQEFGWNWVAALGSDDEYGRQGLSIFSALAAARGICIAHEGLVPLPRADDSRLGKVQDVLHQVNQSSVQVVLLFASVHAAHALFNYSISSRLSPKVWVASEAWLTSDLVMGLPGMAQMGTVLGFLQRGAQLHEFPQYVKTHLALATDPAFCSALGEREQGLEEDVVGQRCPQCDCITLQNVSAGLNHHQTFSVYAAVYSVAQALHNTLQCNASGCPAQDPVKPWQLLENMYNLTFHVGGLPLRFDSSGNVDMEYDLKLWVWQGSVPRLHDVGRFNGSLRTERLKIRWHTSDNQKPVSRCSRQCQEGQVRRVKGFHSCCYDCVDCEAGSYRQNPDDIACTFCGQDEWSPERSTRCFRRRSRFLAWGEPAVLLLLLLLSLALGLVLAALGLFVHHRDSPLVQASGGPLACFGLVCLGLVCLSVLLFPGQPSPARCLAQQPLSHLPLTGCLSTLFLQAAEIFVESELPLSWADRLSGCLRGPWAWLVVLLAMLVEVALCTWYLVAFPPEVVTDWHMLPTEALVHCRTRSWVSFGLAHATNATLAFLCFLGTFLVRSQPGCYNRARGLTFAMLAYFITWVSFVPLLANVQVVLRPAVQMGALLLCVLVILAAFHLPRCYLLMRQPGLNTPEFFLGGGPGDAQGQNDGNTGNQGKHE
T1 sequence (Q8TE23 20-839): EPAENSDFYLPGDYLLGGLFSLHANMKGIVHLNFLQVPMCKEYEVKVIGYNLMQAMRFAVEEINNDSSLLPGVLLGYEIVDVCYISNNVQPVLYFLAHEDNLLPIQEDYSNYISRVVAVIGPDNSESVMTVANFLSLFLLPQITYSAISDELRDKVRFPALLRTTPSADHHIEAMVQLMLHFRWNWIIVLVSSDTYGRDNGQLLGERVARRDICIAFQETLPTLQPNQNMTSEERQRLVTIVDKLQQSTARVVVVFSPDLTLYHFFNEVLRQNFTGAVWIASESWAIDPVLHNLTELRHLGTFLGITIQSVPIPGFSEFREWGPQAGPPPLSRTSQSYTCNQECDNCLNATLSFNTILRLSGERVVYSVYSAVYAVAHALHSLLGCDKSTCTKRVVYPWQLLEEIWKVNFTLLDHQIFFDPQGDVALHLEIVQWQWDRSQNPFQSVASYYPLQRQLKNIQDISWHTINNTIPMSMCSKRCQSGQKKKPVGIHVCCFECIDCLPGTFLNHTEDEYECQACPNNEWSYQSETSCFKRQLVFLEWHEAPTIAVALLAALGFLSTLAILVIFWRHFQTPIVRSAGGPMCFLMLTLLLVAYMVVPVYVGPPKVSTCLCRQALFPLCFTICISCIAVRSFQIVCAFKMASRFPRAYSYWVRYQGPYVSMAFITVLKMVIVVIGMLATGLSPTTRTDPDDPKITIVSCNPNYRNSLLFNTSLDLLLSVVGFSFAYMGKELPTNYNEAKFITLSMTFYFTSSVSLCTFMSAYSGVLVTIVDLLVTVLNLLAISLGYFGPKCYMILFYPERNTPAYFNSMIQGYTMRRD
Outline: (§1)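 Each mutant receptor pair was expressed transiently in G16Gust44-expressing HEK293T cells; stimuli dissolved in C1 solution triggered calcium responses, recorded by fluorometric imaging and scaled to baseline fluorescence (ΔF/F) after mock correction, from at least three experiments run in duplicate.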

[2] = molecular target: T2, hTAS1R2 + hTAS1R3 H641A^3.33 (Homo sapiens, UniProt Q7RTX0+Q8TE23, H641A); assay: as above; type: cell-based; settings: variant H641A^3.33; for Emax: read-out: maximal signal (% of wt)
T2 construct: expressed in transfected cells; host or cells: HEK293T cells stably expressing G16Gust44
T2 sequence (Q8TE23 20-839): T1 sequence (Q8TE23 20-839)
T2 sequence (Q7RTX0 21-852 H641A): T1 sequence (Q7RTX0 21-852 G804V) with H621A, V784G
Outline: as §1

Row | SMILES | receptor response ([1]; mutant G804V^7.42, any tested concentration) | EC50 ([1]; variant G804V^7.42) | EC50 [2] [µM] | Emax [2] [%] | EC50 ([1]; variant G804V^7.42, read-out: EC50) [µM] | Emax ([1]; variant G804V^7.42, read-out: maximal signal (% of wt)) [%]
1 | COc1ccc(CCC(=O)c2c(O)cc(O[C@@H]3O[C@H](CO)[C@@H](O)[C@H](O)[C@H]3O[C@@H]3O[C@@H](C)[C@H](O)[C@@H](O)[C@H]3O)cc2O)cc1O [NHDC, neohesperidin dihydrochalcone] | did not respond to NHDC at any tested concentration | n.r. | 1200 ± 400 | 57 ± 22 | – | –
2 | COC(=O)[C@H](Cc1ccccc1)NC(=O)[C@@H](N)CC(=O)O [aspartame] (HELM PEPTIDE1{D.F.[CO[*:1]]}$$$$V2.0) | – | – | 1800 ± 400 | 79 ± 70 | 1300 ± 300 | 21 ± 2
